The test system of test [1] is IL10 secretion by OCI-LY3 ABC-DLBCL cells. The test can be described thus: Human IL10 Mesoscale assay (OCI-LY3). Format: cell-based. To be noted: Homo sapiens, 24 h. The essentials: (§1)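 After 24 h at 37 °C with test compounds (15 μM down to 58.6 nM, 9 twofold steps, 0.3% DMSO), IL6 and IL10 secreted by 100,000 OCI-LY3 or TMD8 cells per well were measured in supernatants with a Mesoscale immunoassay. Data were scaled between DMSO wells (high) and RN486 treatment (low).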

For test [2], the system named is IL6 secretion by OCI-LY3 ABC-DLBCL cells. The test can be described thus: Human IL6 Mesoscale assay (OCI-LY3). Format: cell-based. The settings on record: Homo sapiens, 24 h. The essentials:
as §1

Test [3] has as its target full-length MALT1 protein (Strep-MALT1(1-824)-His) (Homo sapiens (Human), UniProt Q9UDY8). The test can be described thus: MALT1 Biochemical Protease Assay (Ac-LRSR-AMC substrate). The settings on record: 10 nM FL MALT1, 200 μM Ac-LRSR-AMC, 4 h at RT; read-out: MALT1_Biochemical activity (Ac-LRSR-amc) IC50. Put shortly: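 Full-length MALT1 pre-incubated with compounds (30 μM to 0.5 nM, 11 threefold steps) for 50 min at RT. After Ac-LRSR-AMC was added, the reaction ran 4 h at RT and AMC fluorescence was read. IC50 and Hill slope from curve fitting against no-enzyme and no-compound controls.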

full-length MALT1 protein (Strep-MALT1(1-824)-His), sequence (Q9UDY8 whole entry): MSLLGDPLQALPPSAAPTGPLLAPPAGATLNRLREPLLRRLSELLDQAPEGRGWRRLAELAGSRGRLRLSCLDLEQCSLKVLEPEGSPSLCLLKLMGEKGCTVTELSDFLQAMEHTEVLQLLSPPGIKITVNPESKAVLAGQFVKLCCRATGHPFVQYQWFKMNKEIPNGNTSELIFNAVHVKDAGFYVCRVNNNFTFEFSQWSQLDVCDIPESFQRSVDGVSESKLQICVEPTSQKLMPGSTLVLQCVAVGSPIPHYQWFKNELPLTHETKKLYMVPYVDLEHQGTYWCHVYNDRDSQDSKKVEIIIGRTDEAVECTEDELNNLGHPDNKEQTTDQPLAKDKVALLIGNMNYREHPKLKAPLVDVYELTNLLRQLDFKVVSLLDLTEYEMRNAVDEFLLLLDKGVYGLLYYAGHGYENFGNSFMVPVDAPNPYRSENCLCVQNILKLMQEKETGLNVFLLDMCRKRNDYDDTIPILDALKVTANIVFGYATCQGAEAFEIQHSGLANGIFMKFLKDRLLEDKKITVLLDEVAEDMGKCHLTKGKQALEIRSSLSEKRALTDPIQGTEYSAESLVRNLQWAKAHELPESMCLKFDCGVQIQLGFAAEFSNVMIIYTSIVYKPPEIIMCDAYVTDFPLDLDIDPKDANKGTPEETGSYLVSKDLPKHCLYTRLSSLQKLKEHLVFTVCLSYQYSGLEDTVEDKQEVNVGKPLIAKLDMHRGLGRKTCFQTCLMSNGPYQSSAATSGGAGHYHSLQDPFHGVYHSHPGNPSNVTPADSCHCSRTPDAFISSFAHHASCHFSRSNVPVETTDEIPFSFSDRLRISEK

For the molecule `Cn1ccc(-c2ncc(NC(=O)c3cnn(-c4cccc5nnsc45)c3C(F)(F)F)cc2Cl)n1` [Cpd 293, 1-(benzo[d][1,2,3]thiadiazol-7-yl)-N-(5-chloro-6-(1-methyl-1H-pyrazol-3-yl)pyridin-3-yl)-5-(trifluoromethyl)-1H-pyrazole-4-carboxamide], the IC50 was 0.251 µM in test [1], 0.447 µM in test [2] and 0.076 µM in test [3].

`N#Cc1cc(NC(=O)c2cnn(-c3ncnc4scnc34)c2C(F)(F)F)cnc1-n1nccn1` [Cpd 294, N-(5-cyano-6-(2H-1,2,3-triazol-2-yl)pyridin-3-yl)-1-(thiazolo[5,4-d]pyrimidin-7-yl)-5-(trifluoromethyl)-1H-pyrazole-4-carboxamide]: the IC50 in test [1] amounted to 0.871 µM; in test [2], 1.58 µM; in test [3] it was 0.076 µM.

For `Cc1nc2ccccn2c1-n1ncc(C(=O)Nc2cnc(-n3nccn3)c(C#N)c2)c1C(F)(F)F` [Cpd 295, N-(5-cyano-6-(2H-1,2,3-triazol-2-yl)pyridin-3-yl)-1-(2-methylimidazo[1,2-a]pyridin-3-yl)-5-(trifluoromethyl)-1H-pyrazole-4-carboxamide], the IC50 amounted to 0.724 µM in test [1], 1.26 µM in test [2] and 0.074 µM in test [3].

Take `N#Cc1cc(NC(=O)c2cnn(-c3ncnc4ccccc34)c2C(F)(F)F)cnc1-n1nccn1` [Cpd 296, N-(5-cyano-6-(2H-1,2,3-triazol-2-yl)pyridin-3-yl)-1-(quinazolin-4-yl)-5-(trifluoromethyl)-1H-pyrazole-4-carboxamide]: the figures for the IC50 in test [1], in test [2] and in test [3] were 0.069 µM, 0.182 µM and 0.072 µM, respectively.

On to `Cc1nc(-n2nccn2)c(C#N)cc1NC(=O)c1cnn(-c2cccc3scnc23)c1C(F)(F)F` [Cpd 297, 1-(benzo[d]thiazol-4-yl)-N-(5-cyano-2-methyl-6-(2H-1,2,3-triazol-2-yl)pyridin-3-yl)-5-(trifluoromethyl)-1H-pyrazole-4-carboxamide], for which the half-inhibitory concentration (IC50) came to 0.115 µM in test [1], 0.135 µM in test [2] and 0.251 µM in test [3].

Take `Cc1cc(-n2nccn2)c(C#N)cc1NC(=O)c1cnn(-c2cccc3scnc23)c1C(F)(F)F` [Cpd 298, 1-(benzo[d]thiazol-4-yl)-N-(5-cyano-2-methyl-4-(2H-1,2,3-triazol-2-yl)phenyl)-5-(trifluoromethyl)-1H-pyrazole-4-carboxamide]: the results for the IC50 in test [1], in test [2] and in test [3] were 0.025 µM, 0.05 µM and 1.35 µM, respectively.

As to `Nc1cnn(-c2ncc(NC(=O)c3cnn(-c4cccc5scnc45)c3C(F)(F)F)cc2Cl)n1` [Cpd 299, N-(6-(4-amino-2H-1,2,3-triazol-2-yl)-5-chloropyridin-3-yl)-1-(benzo[d]thiazol-4-yl)-5-(trifluoromethyl)-1H-pyrazole-4-carboxamide], the IC50 in test [1] is 0.309 µM; in test [2], 0.537 µM; in test [3], 0.105 µM.

With `Cc1cc(NC(=O)c2cnn(-c3cccc4scnc34)c2C(F)(F)F)c(C)nc1-n1nccn1` [Cpd 300, 1-(benzo[d]thiazol-4-yl)-N-(2,5-dimethyl-6-(2H-1,2,3-triazol-2-yl)pyridin-3-yl)-5-(trifluoromethyl)-1H-pyrazole-4-carboxamide], the values for the IC50 in test [1], in test [2] and in test [3] were 0.339 µM, 0.525 µM and 4.17 µM, respectively.

For the molecule `O=C(Nc1cc(Cl)c(-n2nccn2)cc1F)c1cnn(-c2cccc3nnsc23)c1C(F)(F)F` [Cpd 301, 1-(benzo[d][1,2,3]thiadiazol-7-yl)-N-(5-chloro-2-fluoro-4-(2H-1,2,3-triazol-2-yl)phenyl)-5-(trifluoromethyl)-1H-pyrazole-4-carboxamide], the IC50 is 0.417 µM in test [1], 0.501 µM in test [2] and 0.141 µM in test [3].

For the molecule `O=C(Nc1cnc(-c2nn[nH]n2)c(Cl)c1)c1cnn(-c2cccc3ncccc23)c1C(F)(F)F` [Cpd 307, N-(5-chloro-6-(2H-tetrazol-5-yl)pyridin-3-yl)-1-(quinolin-5-yl)-5-(trifluoromethyl)-1H-pyrazole-4-carboxamide], the IC50 in test [1] came to 0.427 µM; in test [2] it was 0.447 µM; in test [3], 0.058 µM.

For `O=C(Nc1cnc(-c2cn[nH]n2)c(Cl)c1)c1cnn(-c2cccc3ncccc23)c1C(F)(F)F` [Cpd 309, N-(5-chloro-6-(2H-1,2,3-triazol-4-yl)pyridin-3-yl)-1-(quinolin-5-yl)-5-(trifluoromethyl)-1H-pyrazole-4-carboxamide], the IC50 in test [1] worked out at 0.117 µM; in test [2], 0.151 µM; in test [3], 0.055 µM.

As for `Cc1cc(-n2nccn2)c(Cl)cc1NC(=O)c1cnn(-c2cncc3c(F)cccc23)c1C(F)(F)F` [Cpd 317, N-(5-chloro-2-methyl-4-(2H-1,2,3-triazol-2-yl)phenyl)-1-(8-fluoroisoquinolin-4-yl)-5-(trifluoromethyl)-1H-pyrazole-4-carboxamide], the IC50 in test [1] came to 0.066 µM; in test [2] it was 0.072 µM; in test [3], 0.065 µM.

`Cc1nc(-n2nccn2)c(Cl)cc1NC(=O)c1cnn(-c2ccc(C)n3nccc23)c1C(F)(F)F` [Cpd 318, N-(5-chloro-2-methyl-6-(2H-1,2,3-triazol-2-yl)pyridin-3-yl)-1-(7-methylpyrazolo[1,5-a]pyridin-4-yl)-5-(trifluoromethyl)-1H-pyrazole-4-carboxamide]: the figures for the IC50 in test [1], in test [2] and in test [3] were 0.138 µM, 0.162 µM and 0.083 µM, respectively.

As to `O=C(Nc1ccnc(C(F)(F)F)c1)c1cnn(-c2cccn3nccc23)c1C(F)(F)F` [Cpd 319, 1-(pyrazolo[1,5-a]pyridin-4-yl)-5-(trifluoromethyl)-N-(2-(trifluoromethyl)pyridin-4-yl)-1H-pyrazole-4-carboxamide], the IC50 in test [1] is 0.018 µM; in test [2], 0.02 µM; in test [3], 0.107 µM.

On to `O=C(Nc1ccnc(C(F)(F)F)c1)c1cnn(-c2cncc3c(F)cccc23)c1C(F)(F)F` [Cpd 320, 1-(8-fluoroisoquinolin-4-yl)-5-(trifluoromethyl)-N-(2-(trifluoromethyl)pyridin-4-yl)-1H-pyrazole-4-carboxamide], for which the IC50 in test [1] amounted to 0.093 µM; in test [2] it was 0.182 µM; in test [3], 0.069 µM.

`Cc1nc(-n2nccn2)c(Cl)cc1NC(=O)c1cnn(-c2cncc3sccc23)c1C(F)(F)F` [Cpd 321, N-(5-chloro-2-methyl-6-(2H-1,2,3-triazol-2-yl)pyridin-3-yl)-1-(thieno[2,3-c]pyridin-4-yl)-5-(trifluoromethyl)-1H-pyrazole-4-carboxamide]: the IC50 in test [1] came to 0.049 µM; in test [2], 0.066 µM; in test [3], 0.021 µM.

With `CNc1ncc(-n2ncc(C(=O)Nc3cnc(-n4nccn4)c(Cl)c3)c2C(F)(F)F)c2ccccc12` [Cpd 323, N-(5-chloro-6-(2H-1,2,3-triazol-2-yl)pyridin-3-yl)-1-(1-(methylamino)isoquinolin-4-yl)-5-(trifluoromethyl)-1H-pyrazole-4-carboxamide], the IC50 in test [1] worked out at 0.141 µM; in test [2], 0.195 µM; in test [3] it was 0.174 µM.

In the case of `CNc1ncc(-n2ncc(C(=O)Nc3cnc(-n4nccn4)c(Cl)c3)c2C(F)(F)F)c2cccc(F)c12` [Cpd 324, N-(5-chloro-6-(2H-1,2,3-triazol-2-yl)pyridin-3-yl)-1-(8-fluoro-1-(methylamino)isoquinolin-4-yl)-5-(trifluoromethyl)-1H-pyrazole-4-carboxamide], the IC50 is 0.016 µM in test [1], 0.04 µM in test [2] and 0.117 µM in test [3].

For the molecule `CNc1ncc(-n2ncc(C(=O)Nc3cnc(-n4nccn4)c(C#N)c3)c2C(F)(F)F)c2cccc(F)c12` [Cpd 325, N-(5-cyano-6-(2H-1,2,3-triazol-2-yl)pyridin-3-yl)-1-(8-fluoro-1-(methylamino)isoquinolin-4-yl)-5-(trifluoromethyl)-1H-pyrazole-4-carboxamide], the IC50 in test [1] turned out to be 0.794 µM; in test [2], 0.646 µM; in test [3] it was 0.055 µM.

As for `Nc1ncc(-n2ncc(C(=O)Nc3cc(Cl)c(-n4nccn4)cc3F)c2C(F)(F)F)c2ccccc12` [Cpd 327, 1-(1-aminoisoquinolin-4-yl)-N-(5-chloro-2-fluoro-4-(2H-1,2,3-triazol-2-yl)phenyl)-5-(trifluoromethyl)-1H-pyrazole-4-carboxamide], the IC50 in test [1] came out at 0.1 µM; in test [2], 0.129 µM; in test [3] it was 0.079 µM.

In the case of `N#Cc1cc(NC(=O)c2cnn(-c3cccc4c(N)nccc34)c2C(F)(F)F)cnc1-n1nccn1` [Cpd 328, 1-(1-aminoisoquinolin-5-yl)-N-(5-cyano-6-(2H-1,2,3-triazol-2-yl)pyridin-3-yl)-5-(trifluoromethyl)-1H-pyrazole-4-carboxamide], the IC50 amounted to 0.589 µM in test [1], 0.741 µM in test [2] and 2.57 µM in test [3].

In the case of `Nc1nccc2c(-n3ncc(C(=O)Nc4cnc(-n5nccn5)c(Cl)c4)c3C(F)(F)F)cccc12` [Cpd 330, 1-(1-aminoisoquinolin-5-yl)-N-(5-chloro-6-(2H-1,2,3-triazol-2-yl)pyridin-3-yl)-5-(trifluoromethyl)-1H-pyrazole-4-carboxamide], the results for the IC50 in test [1], in test [2] and in test [3] were 0.025 µM, 0.021 µM and 0.646 µM, respectively.
